{"source": "patent US20060024392A1", "about": "“Compositions and methods for enhancing the effectiveness of a chemotherapeutic agent” (priority 2004, published 2006)", "key": {"[1]": {"tested_on": "male Sprague Dawley rats", "excerpt": "The purpose of this experiment was to determine if the toxicity of 5FU would be decreased by feeding rats a diet supplemented with anthocyanin-rich extract (ARE) prior to and during 5FU treatment.\nRats were randomly allocated in two diet groups and maintained for two weeks on either AIN93 or AIN93 plus 4 g anthocyanin/kg (Table 7).\nSeventy-two hours after the 5FU injections, rats were euthanized by CO2 inhalation. Blood was collected by heart puncture into heparinized tubes, the stomach and entire intestines were removed and stomach, duodenum, jejunum, ileum, cecum and colon sections were fixed in formalin for histopathological evaluation. In addition to the gastrointestinal tract, the following organs were also collected at necropsy for histopathological evaluation: heart, liver, kidney, spleen and bone marrow. These tissues were also fixed in formalin. All tissues were then routinely processed and stained with H&E for pathological evaluation."}, "[2]": {"tested_on": "HT29 colon cancer cells", "test": "Sulforhodamine B (SRB) cell growth assay in HT29 colon cancer cells", "assay_type": "cell-based", "protocol": "HT-29, a cell line derived from colorectal adenocarcinoma (ATCC, HTB 38), grows in McCoy's 5A medium (Biowhittaker, Inc. Walkersville, Md.). NCM460, a cell line derived from a normal human colon (InCell Corp. San Antonio, Tex.), grows in M3 Base media (InCell Corp. San Antonio, Tex.).\nBoth cell lines are kept at 37° C. and 5% CO2 atmosphere. Both media are supplemented with 10% fetal bovine serum (FBS, Biowhittaker, Inc. Walkersville, Md.).\nCells are fixed in situ by the gentle addition of 50 μl of cold 50% (w/v) TCA (final concentration, 10% TCA) and incubated for 60 minutes at 4° C. The supernatant is discarded, and the plates are washed five times with tap water and air dried. Sulforhodamine B (SRB) solution (100 μl) at 0.4% (w/v) in 1% acetic acid is added to each well, and plates are incubated for 10 minutes at room temperature. After staining, unbound dye is removed by washing five times with 1% acetic acid and the plates are air dried. Bound stain is subsequently solubilized with 100 μl 10 mM trizma base for 5 minutes, and the absorbance at wavelength of 490 nm was spectrophotometrically measured using a microplate reader Elx800 (Bio-Tek instruments, Inc.).\nCells were seeded in 96-well cluster tissue culture plates (Costar), containing 100 μl complete growth medium per well at densities of 5,000 cells per well. Incubated at 37° C. in a humidified tissue culture incubator. After 24 Hour, 100 μl complete medium containing 5 half-log dilutions of the 5FU from 2*10^−4 to 2*10^−6 M was added into each well (final concentrations are from 10^−4 to 10^−6 M). Six replicates were used for each concentration. Media containing 0.125% DMSO was used as control. After 48 hours of incubation with 5FU in medium, cell proliferation was assessed using the SRB assay.\nPercentage growth (Growth%) is calculated as: [(Ti−Tz)/(C−Tz)]×100 [absorbance measurements at time zero (Tz), control growth (C), and test growth in the presence of drug at the different concentration levels (Ti)].\nSimilar to the method used in testing GI50 of 5FU: HT29 was plated at 5000 cells per well. […] After 48 hour treatment, cell growth was assessed using SRB assay.\nThe protocol was the same as described above, except cells were exposed to 5FU at concentration ranging from 10^−4 to 10^−6 M with chokeberry ARE at concentration of 1.56, 5, 15.6, 50 μg monomeric anthocyanin/ml growth media.\nThe protocol was the similar to Experiment 1: Cells were exposed to half-log diluted SAC at concentration ranging from 3.2 to 1000 μM for 48 hour. Media containing 0.5% filtered water was used as control.\nThis experiment was to determine whether the antioxidant, SAC would enhance the effect of 5FU in HT29 cells. The protocol was the same as Experiment 3, except cells were exposed to 5FU at concentration ranging from 10^−4 to 10^−6 M with SAC at concentration of 10, 100, 1000 μM."}, "[3]": {"settings": "rats, 72 hours after 200 mg/kg 5FU i.p., AIN93 diet with or without 4 g anthocyanin/kg"}, "[4]": {"settings": "5FU 1.0E−4 M, 48 h, experiment 1"}, "[5]": {"settings": "5FU 1.0E−4 M, 48 h, experiment 2"}, "[6]": {"settings": "5FU 1.0E−4 M, 48 h, experiment 3"}, "[7]": {"settings": "5FU 1.0E−4 M, 48 h, experiment 4"}, "[8]": {"settings": "5FU 1.0E−4.5 M, 48 h, experiment 1"}, "[9]": {"settings": "5FU 1.0E−4.5 M, 48 h, experiment 2"}, "[10]": {"settings": "5FU 1.0E−4.5 M, 48 h, experiment 3"}, "[11]": {"settings": "5FU 1.0E−4.5 M, 48 h, experiment 4"}, "[12]": {"settings": "5FU 1.0E−5 M, 48 h, experiment 1"}, "[13]": {"settings": "5FU 1.0E−5 M, 48 h, experiment 2"}, "[14]": {"settings": "5FU 1.0E−5 M, 48 h, experiment 3"}, "[15]": {"settings": "5FU 1.0E−5 M, 48 h, experiment 4"}, "[16]": {"settings": "5FU 1.0E−5.5 M, 48 h, experiment 1"}, "[17]": {"settings": "5FU 1.0E−5.5 M, 48 h, experiment 2"}, "[18]": {"settings": "5FU 1.0E−5.5 M, 48 h, experiment 3"}, "[19]": {"settings": "5FU 1.0E−5.5 M, 48 h, experiment 4"}, "[20]": {"settings": "5FU 1.0E−6 M, 48 h, experiment 1"}, "[21]": {"settings": "5FU 1.0E−6 M, 48 h, experiment 2"}, "[22]": {"settings": "5FU 1.0E−6 M, 48 h, experiment 3"}, "[23]": {"settings": "5FU 1.0E−6 M, 48 h, experiment 4"}, "[24]": {"settings": "Table 2: 5FU at 1.0E-4.368 M alone, 48 h"}, "[25]": {"settings": "Table 6 (1): 5FU 1.00E−04 M, SAC 0"}, "[26]": {"settings": "Table 6 (1): 5FU 1.00E−05 M, SAC 0"}, "[27]": {"settings": "Table 6 (1): 5FU 1.00E−06 M, SAC 0"}, "[28]": {"settings": "Table 6 (2): 5FU 1.00E−04 M, SAC 0"}, "[29]": {"settings": "Table 6 (2): 5FU 1.00E−05 M, SAC 0"}, "[30]": {"settings": "Table 6 (2): 5FU 1.00E−06 M, SAC 0"}}}
{"smiles": "O=c1[nH]cc(F)c(=O)[nH]1", "note": "[5FU, 5-fluorouracil]", "values": [{"measurement": "clinical signs in preliminary experiment", "setting": "[1]; 2 rats, 5FU 200 mg/kg", "value": "caused weight loss and diarrhea"}, {"measurement": "bone marrow histopathology", "setting": "[1]; [3]", "value": "panmyelophthisis of the bone marrow with congestion"}, {"measurement": "kidney histopathology", "setting": "[1]; [3]", "value": "acute toxic nephropathy of the proximal convoluted tubules was present in all 5FU treated animals in mild to moderate severity"}, {"measurement": "small intestine histopathology", "setting": "[1]; [3]", "value": "intestinal villi were moderately to severely denuded"}, {"measurement": "overall histopathological changes in tissues", "setting": "[1]; rats, 5FU 200 mg/kg i.p. or AIN93 plus 4 g anthocyanin/kg diet with saline", "value": "significant acute toxicological changes"}, {"measurement": "Growth %", "setting": "[2]; [4]", "value": 48.88, "unit": "%"}, {"measurement": "OD", "setting": "[2]; [4]", "value": 0.30}, {"measurement": "Growth %", "setting": "[2]; [5]", "value": 34.83, "unit": "%"}, {"measurement": "OD", "setting": "[2]; [5]", "value": 0.25}, {"measurement": "Growth %", "setting": "[2]; [6]", "value": 37.16, "unit": "%"}, {"measurement": "OD", "setting": "[2]; [6]", "value": 0.26}, {"measurement": "Growth %", "setting": "[2]; [7]", "value": 42.91, "unit": "%"}, {"measurement": "OD", "setting": "[2]; [7]", "value": 0.25}, {"measurement": "Growth %", "setting": "[2]; [8]", "value": 54.63, "unit": "%"}, {"measurement": "OD", "setting": "[2]; [8]", "value": 0.32}, {"measurement": "Growth %", "setting": "[2]; [9]", "value": 44.48, "unit": "%"}, {"measurement": "OD", "setting": "[2]; [9]", "value": 0.27}, {"measurement": "Growth %", "setting": "[2]; [10]", "value": 43.58, "unit": "%"}, {"measurement": "OD", "setting": "[2]; [10]", "value": 0.27}, {"measurement": "Growth %", "setting": "[2]; [11]", "value": 53.85, "unit": "%"}, {"measurement": "OD", "setting": "[2]; [11]", "value": 0.27}, {"measurement": "Growth %", "setting": "[2]; [12]", "value": 60.38, "unit": "%"}, {"measurement": "OD", "setting": "[2]; [12]", "value": 0.33}, {"measurement": "Growth %", "setting": "[2]; [13]", "value": 57.93, "unit": "%"}, {"measurement": "OD", "setting": "[2]; [13]", "value": 0.31}, {"measurement": "Growth %", "setting": "[2]; [14]", "value": 56.76, "unit": "%"}, {"measurement": "OD", "setting": "[2]; [14]", "value": 0.31}, {"measurement": "Growth %", "setting": "[2]; [15]", "value": 70.85, "unit": "%"}, {"measurement": "OD", "setting": "[2]; [15]", "value": 0.32}, {"measurement": "Growth %", "setting": "[2]; [16]", "value": 82.11, "unit": "%"}, {"measurement": "OD", "setting": "[2]; [16]", "value": 0.40}, {"measurement": "Growth %", "setting": "[2]; [17]", "value": 77.24, "unit": "%"}, {"measurement": "OD", "setting": "[2]; [17]", "value": 0.37}, {"measurement": "Growth %", "setting": "[2]; [18]", "value": 76.69, "unit": "%"}, {"measurement": "OD", "setting": "[2]; [18]", "value": 0.37}, {"measurement": "Growth %", "setting": "[2]; [19]", "value": 87.85, "unit": "%"}, {"measurement": "OD", "setting": "[2]; [19]", "value": 0.36}, {"measurement": "Growth %", "setting": "[2]; [20]", "value": 94.25, "unit": "%"}, {"measurement": "OD", "setting": "[2]; [20]", "value": 0.44}, {"measurement": "Growth %", "setting": "[2]; [21]", "value": 94.83, "unit": "%"}, {"measurement": "OD", "setting": "[2]; [21]", "value": 0.42}, {"measurement": "Growth %", "setting": "[2]; [22]", "value": 88.51, "unit": "%"}, {"measurement": "OD", "setting": "[2]; [22]", "value": 0.41}, {"measurement": "Growth %", "setting": "[2]; [23]", "value": 96.36, "unit": "%"}, {"measurement": "OD", "setting": "[2]; [23]", "value": 0.38}, {"measurement": "growth inhibition", "setting": "[2]; 5FU alone at GI50 concentration (FIG. 1)", "value": 65, "unit": "%"}, {"measurement": "Growth %", "setting": "[2]; [24]", "value": 35.02, "unit": "%"}, {"measurement": "OD", "setting": "[2]; [24]", "value": 0.22}, {"measurement": "Growth %", "setting": "[2]; Table 3: 5FU 1.0E−4 M, ARE 0", "value": 29.77, "unit": "%"}, {"measurement": "OD", "setting": "[2]; Table 3: 5FU 1.0E−4 M, ARE 0", "value": 0.20}, {"measurement": "Growth %", "setting": "[2]; Table 3: 5FU 1.0E−5 M, ARE 0", "value": 49.30, "unit": "%"}, {"measurement": "OD", "setting": "[2]; Table 3: 5FU 1.0E−5 M, ARE 0", "value": 0.24}, {"measurement": "Growth %", "setting": "[2]; Table 3: 5FU 1.0E−6 M, ARE 0", "value": 82.33, "unit": "%"}, {"measurement": "OD", "setting": "[2]; Table 3: 5FU 1.0E−6 M, ARE 0", "value": 0.31}, {"measurement": "Growth %", "setting": "[2]; [25]", "value": 27.44, "unit": "%"}, {"measurement": "OD", "setting": "[2]; [25]", "value": 0.175}, {"measurement": "Growth %", "setting": "[2]; [26]", "value": 52.09, "unit": "%"}, {"measurement": "OD", "setting": "[2]; [26]", "value": 0.228}, {"measurement": "Growth %", "setting": "[2]; [27]", "value": 91.63, "unit": "%"}, {"measurement": "OD", "setting": "[2]; [27]", "value": 0.313}, {"measurement": "Growth %", "setting": "[2]; [28]", "value": 26.16, "unit": "%"}, {"measurement": "OD", "setting": "[2]; [28]", "value": 0.178}, {"measurement": "Growth %", "setting": "[2]; [29]", "value": 43.46, "unit": "%"}, {"measurement": "OD", "setting": "[2]; [29]", "value": 0.219}, {"measurement": "Growth %", "setting": "[2]; [30]", "value": 79.32, "unit": "%"}, {"measurement": "OD", "setting": "[2]; [30]", "value": 0.304}, {"measurement": "growth of cells, % of control", "setting": "[2]; highest concentration of 5FU alone", "value": "30 % of control"}, {"measurement": "growth of cells, % of control", "setting": "[2]; intermediate concentration of 5FU alone", "value": "50 % of control"}, {"measurement": "growth of cells, % of control", "setting": "[2]; lowest concentration of 5FU (10^−6 M) alone", "value": "80 % of control"}]}
